Results: PubChem BioAssay AID256 (DTP/NCI, 2004)
Several values for one entry are separate records, joined by “and”; a condition that tells them apart may be missing. Equal entries are not always repeated. Inconclusive results and toxic doses are left out.

Tested on: CD2F1 mice, L1210 leukemia ip, survival T/C
Assay: NCI In Vivo Anticancer Drug Screen. Data for tumor model L1210 Leukemia (intraperitoneal) in CD2F1 (CDF1) mice
Conditions: higher = longer survival
How it was run: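 Activity against a transplanted murine tumor was judged by comparing the compound group with a vehicle group. The outcome in the treated animals was divided by that in the controls.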

[1] = endpoint: mean survival time, dose: 25.0 mg/kg/injection, schedule: Q01DX009 (ip), vehicle: saline with Tween-80
[2] = endpoint: mean survival time, dose: 50.0 mg/kg/injection, schedule: Q01DX009 (ip), vehicle: saline with Tween-80
[3] = endpoint: mean survival time, dose: 100.0 mg/kg/injection, schedule: Q01DX009 (ip), vehicle: other
[4] = endpoint: mean survival time, dose: 100.0 mg/kg/injection, schedule: Q01DX009 (ip), vehicle: saline with Tween-80
[5] = endpoint: mean survival time, dose: 200.0 mg/kg/injection, schedule: Q01DX009 (ip), vehicle: other
[6] = endpoint: mean survival time, dose: 200.0 mg/kg/injection, schedule: Q01DX009 (ip), vehicle: saline with Tween-80
[7] = endpoint: mean survival time, dose: 400.0 mg/kg/injection, schedule: Q01DX009 (ip), vehicle: saline with Tween-80
[8] = endpoint: mean survival time, dose: 100.0 mg/kg/injection, schedule: Q01DX001 (ip), vehicle: saline
[9] = endpoint: mean survival time, dose: 200.0 mg/kg/injection, schedule: Q01DX001 (ip), vehicle: saline
[10] = endpoint: mean survival time, dose: 400.0 mg/kg/injection, schedule: Q01DX001 (ip), vehicle: saline
[11] = endpoint: mean survival time, dose: 100.0 mg/kg/injection, schedule: Q04DX003 (ip), vehicle: saline with Tween-80
[12] = endpoint: mean survival time, dose: 200.0 mg/kg/injection, schedule: Q04DX003 (ip), vehicle: saline with Tween-80

For `CN(C)N=Nc1c(F)c(F)c(F)c(F)c1F`, the T/C (endpoint: mean survival time, dose: 12.5 mg/kg/injection, schedule: Q01DX009 (ip), vehicle: other) was 98 % of control, the T/C (endpoint: mean survival time, dose: 25.0 mg/kg/injection, schedule: Q01DX009 (ip), vehicle: other) was 102 % of control and the T/C [1] was 106 % of control. The T/C (endpoint: mean survival time, dose: 50.0 mg/kg/injection, schedule: Q01DX009 (ip), vehicle: other) was 104 % of control, the T/C [2] was 104 % of control and the T/C [3] was 104 % of control. The T/C [4] was 107 % of control and the T/C [5] was 115 % of control.
With `CC(=O)Oc1cccc(C#N)c1` the T/C [4] was 100 % of control, the T/C [6] was 100 % of control and the T/C [7] was 96 % of control.
In the case of `CC(=O)Nc1nc2ncc(/C=C/c3ccccc3)nc2c(=O)[nH]1`, the T/C (endpoint: mean survival time, dose: 75.0 mg/kg/injection, schedule: Q01DX001 (ip), vehicle: other) is reported as 100 % of control and the T/C (endpoint: mean survival time, dose: 150.0 mg/kg/injection, schedule: Q01DX001 (ip), vehicle: other) is reported as 97 % of control.
In the case of `CCOP(=O)(OCC)c1ccccc1`, the T/C (endpoint: mean survival time, dose: 100.0 mg/kg/injection, schedule: Q04DX002 (ip), vehicle: saline) is reported as 96 % of control, the T/C (endpoint: mean survival time, dose: 200.0 mg/kg/injection, schedule: Q04DX002 (ip), vehicle: saline) is reported as 96 % of control and the T/C (endpoint: mean survival time, dose: 400.0 mg/kg/injection, schedule: Q04DX002 (ip), vehicle: saline) is reported as 112 % of control.
In the case of `C=CC(O)Cc1ccccc1` (stereo unspecified) (tested in a mixture with another compound), the T/C (endpoint: mean survival time, dose: 75.0 mg/kg/injection, schedule: Q01DX009 (ip), vehicle: saline) is reported as 98 % of control, the T/C (endpoint: mean survival time, dose: 150.0 mg/kg/injection, schedule: Q01DX009 (ip), vehicle: saline) is reported as 101 % of control and the T/C (endpoint: mean survival time, dose: 300.0 mg/kg/injection, schedule: Q01DX009 (ip), vehicle: saline) is reported as 107 % of control.
With `CN(C)C(C)(CO)CO` the T/C [8] was 98 % of control, the T/C [9] was 98 % of control and the T/C [10] was 113 % of control.
In the case of `N#CC12CC3CC(CC(C3)C1)C2`, the T/C (endpoint: mean survival time, dose: 5.0 mg/kg/injection, schedule: Q04DX003 (ip), vehicle: saline with Tween-80) is reported as 104 % of control, the T/C (endpoint: mean survival time, dose: 10.0 mg/kg/injection, schedule: Q04DX003 (ip), vehicle: saline with Tween-80) is reported as 104 % of control and the T/C (endpoint: mean survival time, dose: 20.0 mg/kg/injection, schedule: Q04DX003 (ip), vehicle: saline with Tween-80) is reported as 100 % of control.
With `O=CN(Cc1ccccc1)c1cc([N+](=O)[O-])ccc1OCc1ccccc1` the T/C [8] was 96 % of control, the T/C [9] was 94 % of control and the T/C [10] was 100 % of control.
In the case of `C=C(C)CNC1=C(C)C(=O)C2=C(C1=O)[C@@H](COC(N)=O)[C@]1(O)[C@H]3[C@@H](CN21)N3C` (stereo partly specified), the T/C (endpoint: mean survival time, dose: 1.5 mg/kg/injection, schedule: Q01DX001 (ip), vehicle: water) is reported as 97 % of control, the T/C (endpoint: mean survival time, dose: 3.0 mg/kg/injection, schedule: Q01DX001 (ip), vehicle: water) is reported as 97 % of control and the T/C (endpoint: mean survival time, dose: 6.0 mg/kg/injection, schedule: Q01DX001 (ip), vehicle: water) is reported as 103 % of control. The T/C (endpoint: mean survival time, dose: 12.0 mg/kg/injection, schedule: Q01DX001 (ip), vehicle: water) was 98 % of control, the T/C (endpoint: mean survival time, dose: 24.0 mg/kg/injection, schedule: Q01DX001 (ip), vehicle: water) was 106 % of control and the T/C (endpoint: mean survival time, dose: 100.0 mg/kg/injection, schedule: Q01DX001 (ip), vehicle: distilled water + Tween-80) was 156 % of control.
In the case of `c1ccc2c(c1)c1ccccc1c1nc3c(nc21)CCCC3`, the T/C [11] is reported as 102 % of control, the T/C [12] is reported as 96 % of control and the T/C (endpoint: mean survival time, dose: 400.0 mg/kg/injection, schedule: Q04DX003 (ip), vehicle: saline with Tween-80) is reported as 96 % of control.
For `CN(Cc1cnc2nc(N)nc(N)c2n1)c1ccc(C(=O)NC(CCC(=O)NC(CCC(=O)NC(CCC(=O)O)C(=O)O)C(=O)O)C(=O)O)cc1` (stereo unspecified), the T/C (endpoint: mean survival time, dose: 0.5 mg/kg/injection, schedule: Q01DX005 (ip), vehicle: sodium bicarbonate) was 98 % of control, the T/C (endpoint: mean survival time, dose: 1.0 mg/kg/injection, schedule: Q01DX005 (ip), vehicle: sodium bicarbonate) was 111 % of control and 112 % of control and the T/C (endpoint: mean survival time, dose: 2.0 mg/kg/injection, schedule: Q01DX005 (ip), vehicle: sodium bicarbonate) was 114 % of control and 121 % of control. The T/C (endpoint: mean survival time, dose: 8.0 mg/kg/injection, schedule: Q01DX005 (ip), vehicle: sodium bicarbonate) was 152 % of control and 153 % of control and the T/C (endpoint: mean survival time, dose: 16.0 mg/kg/injection, schedule: Q01DX005 (ip), vehicle: sodium bicarbonate) was 158 % of control.
`CC(=O)CCCSCCO` was tested, and the T/C (endpoint: mean survival time, dose: 100.0 mg/kg/injection, schedule: Q04DX003 (ip), vehicle: saline) was 101 % of control, the T/C (endpoint: mean survival time, dose: 200.0 mg/kg/injection, schedule: Q04DX003 (ip), vehicle: saline) was 97 % of control and the T/C (endpoint: mean survival time, dose: 400.0 mg/kg/injection, schedule: Q04DX003 (ip), vehicle: saline) was 101 % of control.
With `CC(O)C1OC(n2cnc3c(ncn3C3OC(C(C)O)C(O)C3O)c2=O)C(O)C1O` (stereo unspecified) the T/C (endpoint: mean survival time, dose: 10.63 mg/kg/injection, schedule: Q01DX005 (ip), vehicle: water) was 102 % of control, the T/C (endpoint: mean survival time, dose: 21.25 mg/kg/injection, schedule: Q01DX005 (ip), vehicle: water) was 98 % of control and the T/C (endpoint: mean survival time, dose: 42.5 mg/kg/injection, schedule: Q01DX005 (ip), vehicle: water) was 102 % of control. For the same compound, the T/C (endpoint: mean survival time, dose: 85.0 mg/kg/injection, schedule: Q01DX005 (ip), vehicle: water) was 101 % of control and the T/C (endpoint: mean survival time, dose: 170.0 mg/kg/injection, schedule: Q01DX005 (ip), vehicle: water) was 108 % of control.
In the case of `Oc1ccc(I)cc1`, the T/C [3] is reported as 96 % of control, the T/C [5] is reported as 103 % of control and the T/C (endpoint: mean survival time, dose: 400.0 mg/kg/injection, schedule: Q01DX009 (ip), vehicle: other) is reported as 111 % of control.
`[Cl][Pt][Cl].[NH-]C(CCC(N)=O)C(=O)O` (stereo unspecified) was tested, and the T/C (endpoint: median survival time, dose: 12.5 mg/kg/injection, schedule: Q04DX003 (ip), vehicle: water) was 100 % of control, the T/C (endpoint: median survival time, dose: 25.0 mg/kg/injection, schedule: Q04DX003 (ip), vehicle: water) was 101 % of control and the T/C (endpoint: median survival time, dose: 50.0 mg/kg/injection, schedule: Q04DX003 (ip), vehicle: water) was 108 % of control. For the same compound, the T/C (endpoint: median survival time, dose: 100.0 mg/kg/injection, schedule: Q04DX003 (ip), vehicle: water) was 107 % of control and the T/C (endpoint: median survival time, dose: 200.0 mg/kg/injection, schedule: Q04DX003 (ip), vehicle: water) was 111 % of control.
With `O=C1CSC(=S)N1C1OC(CO)C(O)C1O` (stereo unspecified) the T/C (endpoint: mean survival time, dose: 12.5 mg/kg/injection, schedule: Q01DX005 (ip), vehicle: distilled water + Tween-80) was 111 % of control, the T/C (endpoint: mean survival time, dose: 25.0 mg/kg/injection, schedule: Q01DX005 (ip), vehicle: distilled water + Tween-80) was 102 % of control and the T/C (endpoint: mean survival time, dose: 50.0 mg/kg/injection, schedule: Q01DX005 (ip), vehicle: distilled water + Tween-80) was 102 % of control. For the same compound, the T/C (endpoint: mean survival time, dose: 100.0 mg/kg/injection, schedule: Q01DX005 (ip), vehicle: distilled water + Tween-80) was 101 % of control and the T/C (endpoint: mean survival time, dose: 200.0 mg/kg/injection, schedule: Q01DX005 (ip), vehicle: distilled water + Tween-80) was 92 % of control.
In the case of `CCC(CC)COC(=O)c1ccccc1C(=O)OCC(CC)CC`, the T/C (endpoint: mean survival time, dose: 12.5 mg/kg/injection, schedule: Q01DX009 (ip), vehicle: saline with Tween-80) is reported as 108 % of control, the T/C [1] is reported as 101 % of control and the T/C [2] is reported as 104 % of control. For the same compound, the T/C [4] was 102 % of control, the T/C [6] was 98 % of control and the T/C [7] was 100 % of control.
For `COc1ccc2[nH]c3ccc4cc[n+](CCN5CCC(C6CCN(CC[n+]7ccc8ccc9[nH]c%10ccc(OC)cc%10c9c8c7)CC6)CC5)cc4c3c2c1`, the T/C (endpoint: median survival time, dose: 8.0 mg/kg/injection, schedule: Q01DX009 (ip), vehicle: water) was 172 % of control and 246 % of control, the T/C (endpoint: median survival time, dose: 16.0 mg/kg/injection, schedule: Q01DX009 (ip), vehicle: water) was 160 % of control and 185 % of control and the T/C (endpoint: median survival time, dose: 16.25 mg/kg/injection, schedule: Q01DX009 (ip), vehicle: water) was 172 % of control. The T/C (endpoint: median survival time, dose: 32.0 mg/kg/injection, schedule: Q01DX009 (ip), vehicle: water) was 119 % of control, the T/C (endpoint: median survival time, dose: 32.5 mg/kg/injection, schedule: Q01DX009 (ip), vehicle: water) was 197 % of control and the T/C (endpoint: median survival time, dose: 200.0 mg/kg/injection, schedule: Q01DX009 (ip), vehicle: Klucel (hydroxypropylcellulose) (HPC)) was 91 % of control and 102 % of control.
For `CCOC(=O)CC1NCCS1` (stereo unspecified), the T/C [8] was 97 % of control, the T/C [9] was 96 % of control and the T/C [10] was 94 % of control.
`Cc1cccc(OCC(=O)O)c1` was tested, and the T/C [2] was 97 % of control, the T/C [4] was 95 % of control and the T/C [11] was 95 % of control. For the same compound, the T/C [6] was 90 % of control and the T/C [12] was 93 % of control.
For `COc1ccc(/C=C/C(=O)O)cc1`, the T/C (endpoint: mean survival time, dose: 100.0 mg/kg/injection, schedule: Q01DX001 (ip), vehicle: saline with Tween-80) was 102 % of control, the T/C (endpoint: mean survival time, dose: 200.0 mg/kg/injection, schedule: Q01DX001 (ip), vehicle: saline with Tween-80) was 96 % of control and the T/C (endpoint: mean survival time, dose: 400.0 mg/kg/injection, schedule: Q01DX001 (ip), vehicle: saline with Tween-80) was 97 % of control.
For `C#CC1(OC(=O)Nc2ccccc2)CCCCC1`, the T/C (endpoint: mean survival time, dose: 100.0 mg/kg/injection, schedule: Q04DX002 (ip), vehicle: saline with Tween-80) was 100 % of control and the T/C (endpoint: mean survival time, dose: 200.0 mg/kg/injection, schedule: Q04DX002 (ip), vehicle: saline with Tween-80) was 92 % of control.
For `CCCCC#CC1CCCC1` (tested in a mixture with another compound), the T/C [2] was 103 % of control, the T/C [4] was 100 % of control and the T/C [6] was 100 % of control.
